In ChEMBL document CHEMBL1141049, “Synthesis and structure-activity relationship of N-alkyl Gly-boro-Pro inhibitors of DPP4, FAP, and DPP7” (Bioorg Med Chem Lett, 2005) one finds IC50 and inhibition data, which are given here for 15 compounds.

In assay [1] the target is T1, Dipeptidyl peptidase 2 (Homo sapiens, UniProt Q9UHL4). The experiment in a line: Inhibitory activity against human DPP7 using Ala-Pro-AMC in fluorometric assay.
The target in another assay is Dipeptidyl peptidase 4 (Homo sapiens, UniProt P27487). Description: Inhibitory activity against human DPP4 using Gly-Pro-AMC in fluorometric assay.
Chain of Dipeptidyl peptidase 4 (P27487 whole entry): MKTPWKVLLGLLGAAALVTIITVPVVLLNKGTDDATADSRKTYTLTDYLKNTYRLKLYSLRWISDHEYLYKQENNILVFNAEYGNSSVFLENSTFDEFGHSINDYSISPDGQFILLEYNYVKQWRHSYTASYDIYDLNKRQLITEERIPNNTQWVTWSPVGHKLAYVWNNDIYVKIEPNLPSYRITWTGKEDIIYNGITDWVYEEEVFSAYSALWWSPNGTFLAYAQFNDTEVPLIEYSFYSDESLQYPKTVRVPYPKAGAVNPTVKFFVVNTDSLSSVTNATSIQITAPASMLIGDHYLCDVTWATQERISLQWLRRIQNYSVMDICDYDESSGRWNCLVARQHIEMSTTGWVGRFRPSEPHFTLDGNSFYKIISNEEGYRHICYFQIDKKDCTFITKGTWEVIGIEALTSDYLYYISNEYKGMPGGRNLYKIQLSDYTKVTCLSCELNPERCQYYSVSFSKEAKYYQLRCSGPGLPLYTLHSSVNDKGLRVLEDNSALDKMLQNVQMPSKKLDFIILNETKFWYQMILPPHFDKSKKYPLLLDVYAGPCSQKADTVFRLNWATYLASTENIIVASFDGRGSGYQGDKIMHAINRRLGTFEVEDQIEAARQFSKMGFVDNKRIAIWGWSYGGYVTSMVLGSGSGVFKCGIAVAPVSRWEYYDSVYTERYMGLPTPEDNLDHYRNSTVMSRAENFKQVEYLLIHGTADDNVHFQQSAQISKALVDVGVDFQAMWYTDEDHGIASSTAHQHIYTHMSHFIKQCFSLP
Assay [2] has as its target Prolyl endopeptidase FAP (Homo sapiens) (UniProt Q12884). Description: Inhibition of human FAP using Lys-Pro-AMC in fluorometric assay at 33 uM.
A further assay addresses T2, Prolyl endopeptidase FAP (Homo sapiens, UniProt Q12884).
T2 sequence (Q12884 whole entry): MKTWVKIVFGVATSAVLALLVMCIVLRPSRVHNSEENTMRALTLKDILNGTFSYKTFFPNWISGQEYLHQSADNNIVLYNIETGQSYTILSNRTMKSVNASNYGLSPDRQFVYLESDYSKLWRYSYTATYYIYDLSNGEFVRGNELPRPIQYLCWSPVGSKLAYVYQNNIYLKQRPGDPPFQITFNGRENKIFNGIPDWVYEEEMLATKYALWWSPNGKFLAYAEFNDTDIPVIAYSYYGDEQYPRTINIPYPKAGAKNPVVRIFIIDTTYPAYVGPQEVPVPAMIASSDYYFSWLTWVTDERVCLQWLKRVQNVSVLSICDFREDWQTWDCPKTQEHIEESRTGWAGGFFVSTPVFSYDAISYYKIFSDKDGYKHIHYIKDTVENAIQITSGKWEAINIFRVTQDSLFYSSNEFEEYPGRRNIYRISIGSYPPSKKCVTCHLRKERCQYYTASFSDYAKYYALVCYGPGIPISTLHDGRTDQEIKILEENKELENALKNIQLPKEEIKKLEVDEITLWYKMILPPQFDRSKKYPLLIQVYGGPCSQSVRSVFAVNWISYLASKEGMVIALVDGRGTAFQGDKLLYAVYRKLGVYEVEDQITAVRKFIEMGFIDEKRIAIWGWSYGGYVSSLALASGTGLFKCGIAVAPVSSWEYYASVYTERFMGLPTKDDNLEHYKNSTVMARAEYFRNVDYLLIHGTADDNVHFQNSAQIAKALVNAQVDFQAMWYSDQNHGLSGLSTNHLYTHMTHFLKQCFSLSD
Description: Inhibitory activity against human FAP using Lys-Pro-AMC in fluorimetric assay; No inhibition.

Assay [3] deals with T1, Dipeptidyl peptidase 2. Description: Inhibitory activity against human DPP7 using Ala-Pro-AMC in fluorometric assay; No inhibition.

As a reminder, the IC50 is the concentration needed to halve the response being measured. `C[C@@H](N)C(=O)N1CCC[C@H]1B(O)O` showed an IC50 at Dipeptidyl peptidase 2 [1] of 6.3 nM.

As for `O=C(CNC1CCCCC1)N1CCC[C@H]1B(O)O`, the IC50 against Dipeptidyl peptidase 4 amounted to 27 nM; against Dipeptidyl peptidase 2 [1], 4.1 nM.

As usually defined, the inhibition is how much of the control response was suppressed. Low readings indicate a weak effect, high ones a strong effect. In assay [2], `O=C(CNC1CC1)N1CCC[C@H]1B(O)O` yielded an inhibition of 30%. Moreover, the IC50 at Dipeptidyl peptidase 4 was determined as 130 nM; on Dipeptidyl peptidase 2 [1], 570 nM.

For the compound `O=C(CNC1CCCCCC1)N1CCC[C@H]1B(O)O`, the values for the IC50 on Dipeptidyl peptidase 4 and against Dipeptidyl peptidase 2 [1] were 7.8 nM and 1.8 nM, respectively.

Consider `O=C(CNC1CCCCCCC1)N1CCC[C@H]1B(O)O`, for which the IC50 on Dipeptidyl peptidase 4 is 27 nM; against Dipeptidyl peptidase 2 [1] it was 4 nM.

Consider `O=C(CNC1CC2CCCC1C2)N1CCC[C@H]1B(O)O` (stereo partly specified), for which the IC50 was found to be 25 nM on Dipeptidyl peptidase 4 and 8 nM against Dipeptidyl peptidase 2 [1].

`O=C(CNC1CCCC1)N1CCC[C@H]1B(O)O`: the results for the IC50 on Dipeptidyl peptidase 4 and on Dipeptidyl peptidase 2 [1] were 25 nM and 15 nM, respectively.

As to `O=C(CNC1CCC1)N1CCC[C@H]1B(O)O`, the IC50 against Dipeptidyl peptidase 4 is 75 nM; against Dipeptidyl peptidase 2 [1], 140 nM.

Turning to `CC(C)[C@@H](NC1CCCCC1)C(=O)N1CCC[C@H]1B(O)O`, the IC50 result at Prolyl endopeptidase FAP was “Not Active”; against Dipeptidyl peptidase 2 [3] it was “Not Active”; against Dipeptidyl peptidase 4, 16000 nM.

As to `O=C(CNC1C2CC3CC(C2)CC1C3)N1CCC[C@@H]1B(O)O` (stereo partly specified), the IC50 against Dipeptidyl peptidase 4 stood at 12 nM; at Dipeptidyl peptidase 2 [1] it was 120 nM.

Consider `CN(CC(=O)N1CCC[C@@H]1B(O)O)C1C2CC3CC(C2)CC1C3` (stereo partly specified), for which the values for the IC50 at Dipeptidyl peptidase 4 and against Dipeptidyl peptidase 2 [1] were 1600 nM and 4600 nM, respectively.

For `O=C(CNC12CC3CC(CC(C3)C1)C2)N1CCC[C@@H]1B(O)O`, the IC50 was 8 nM against Dipeptidyl peptidase 4 and 420 nM against Dipeptidyl peptidase 2 [1].

As for `CCCCCC12CCC(NCC(=O)N3CCC[C@H]3B(O)O)(CC1)CC2`, the figures for the IC50 against Dipeptidyl peptidase 4 and against Dipeptidyl peptidase 2 [1] were 61 nM and 1 nM, respectively.

Take `CC12CC3(C)CC(C)(C1)CC(NCC(=O)N1CCC[C@@H]1B(O)O)(C2)C3`: the figures for the IC50 on Dipeptidyl peptidase 4 and at Dipeptidyl peptidase 2 [1] were 560 nM and 35 nM, respectively.

Take `O=C(CNC1CCCCCCCCC1)N1CCC[C@H]1B(O)O`: the IC50 against Dipeptidyl peptidase 4 came to 58 nM; on Dipeptidyl peptidase 2 [1], 2.2 nM.
